Data on 20 compounds can be found in patent US8901118B2, “Compounds and methods for kinase modulation, and indications therefor” (Plexxikon Inc., priority 2010, dated 2014).

Assay [1] addresses T1, BCR-NTRK3 BaF3 cells (Homo sapiens, UniProt Q16288).
T1 construct: fused on or other part: P11274 (Breakpoint cluster region protein)
Nature of the assay: BaF3 BCR-NTRK3 cell proliferation assay (ATPlite). Type of assay: cell-based. Particulars: read-out: Inhibition of Cell Proliferation IC50, BCR/BaF3 TrkC. The method in brief:
(§1)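 Cells are plated overnight: BaF3 at 10,000/well in G418 medium without WEHI/IL-3, MV-4-11 at 25,000/well in IMDM with 10% FBS. An 8-point 1:3 compound titration (10 μM top) is then added, and plates are incubated 3 days at 37 °C before ATPlite readout and IC50 determination.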
On the technique in general: In ATP-based viability assays light output follows the ATP content of the culture.

Assay [2] concerns the target T2, CYP1A2 (Homo sapiens, UniProt P05177).
T2 sequence (P05177 1-516): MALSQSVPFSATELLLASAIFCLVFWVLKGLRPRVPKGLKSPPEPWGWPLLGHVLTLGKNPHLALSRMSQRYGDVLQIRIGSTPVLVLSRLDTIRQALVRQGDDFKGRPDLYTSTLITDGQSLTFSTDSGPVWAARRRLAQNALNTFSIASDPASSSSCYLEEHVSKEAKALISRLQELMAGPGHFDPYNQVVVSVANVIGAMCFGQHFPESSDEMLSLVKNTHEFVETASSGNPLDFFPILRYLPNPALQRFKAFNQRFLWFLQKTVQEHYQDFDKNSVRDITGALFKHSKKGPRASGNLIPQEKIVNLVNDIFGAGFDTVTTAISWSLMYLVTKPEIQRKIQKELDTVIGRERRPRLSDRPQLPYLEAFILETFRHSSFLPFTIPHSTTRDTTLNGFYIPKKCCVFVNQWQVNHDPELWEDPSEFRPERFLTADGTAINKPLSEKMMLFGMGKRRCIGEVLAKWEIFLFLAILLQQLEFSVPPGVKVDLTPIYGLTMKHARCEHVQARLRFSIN
Nature of the assay: CYP1A2 inhibition (fluorescent substrate CEC). Type of assay: in vitro ADME. Particulars: read-out: Cyp IC50 1A2. In outline: (§2)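 10-pt 1:1 dilution series (from 100 mM DMSO stock) in NADPH regen cofactor mix, 5% MeCN; 10 min preincubation at 37 °C. Enzyme reaction 37 °C: 1A2 15 min, 2C9 45 min, 2C19/2D6 30 min. Fluorescence readout; IC50 fit.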

Assay [3] has as its target CYP2C19 (Homo sapiens, UniProt P33261). The assay can be described thus: CYP2C19 inhibition (fluorescent substrate CEC). Type of assay: in vitro ADME. Particulars: read-out: Cyp IC50 2C19. The method in brief: as §2
The target in assay [4] is T3, BCR-NTRK1 BaF3 cells (Homo sapiens, UniProt P04629).
T3 construct: fused on or other part: P11274 (Breakpoint cluster region protein)
The assay can be described thus: BaF3 BCR-NTRK1 cell proliferation assay (ATPlite). The class given is cell-based. To be noted: read-out: Inhibition of Cell Proliferation IC50, BCR/BaF3 TrkA. In outline: as §1

Each structure is given as a SMILES string. Where only a bound is given, the exact number is not on record here.

T1 sequence (Q16288 whole entry, the tested form may be a part): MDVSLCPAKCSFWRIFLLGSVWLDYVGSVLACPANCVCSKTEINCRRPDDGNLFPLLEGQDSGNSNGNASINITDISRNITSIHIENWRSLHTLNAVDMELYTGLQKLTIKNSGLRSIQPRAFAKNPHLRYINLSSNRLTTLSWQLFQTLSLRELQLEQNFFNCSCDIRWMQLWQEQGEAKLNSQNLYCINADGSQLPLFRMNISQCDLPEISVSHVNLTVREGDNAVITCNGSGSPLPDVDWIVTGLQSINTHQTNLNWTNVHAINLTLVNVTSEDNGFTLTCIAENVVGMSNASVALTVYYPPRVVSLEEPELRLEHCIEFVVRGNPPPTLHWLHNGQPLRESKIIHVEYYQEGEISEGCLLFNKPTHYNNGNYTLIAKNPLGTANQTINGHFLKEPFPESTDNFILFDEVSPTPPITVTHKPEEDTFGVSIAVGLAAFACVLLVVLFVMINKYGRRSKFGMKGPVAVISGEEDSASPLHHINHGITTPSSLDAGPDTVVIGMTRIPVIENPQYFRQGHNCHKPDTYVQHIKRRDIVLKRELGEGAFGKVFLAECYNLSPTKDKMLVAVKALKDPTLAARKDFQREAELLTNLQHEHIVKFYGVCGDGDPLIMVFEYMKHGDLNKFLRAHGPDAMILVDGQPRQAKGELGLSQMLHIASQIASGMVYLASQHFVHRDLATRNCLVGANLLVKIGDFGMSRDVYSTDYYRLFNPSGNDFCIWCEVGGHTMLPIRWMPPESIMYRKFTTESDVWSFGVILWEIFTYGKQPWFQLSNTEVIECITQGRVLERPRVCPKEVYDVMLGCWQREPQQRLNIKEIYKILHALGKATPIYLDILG
T3 sequence (P04629 510-781): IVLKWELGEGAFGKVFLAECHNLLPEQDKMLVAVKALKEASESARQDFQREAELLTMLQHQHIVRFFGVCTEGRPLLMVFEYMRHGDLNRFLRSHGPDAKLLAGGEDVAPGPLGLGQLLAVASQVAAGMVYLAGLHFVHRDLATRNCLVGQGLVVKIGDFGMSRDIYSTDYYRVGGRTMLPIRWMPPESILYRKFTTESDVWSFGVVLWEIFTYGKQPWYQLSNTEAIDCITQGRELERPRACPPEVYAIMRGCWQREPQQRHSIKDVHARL
Chain of CYP2C19 (P33261 whole entry): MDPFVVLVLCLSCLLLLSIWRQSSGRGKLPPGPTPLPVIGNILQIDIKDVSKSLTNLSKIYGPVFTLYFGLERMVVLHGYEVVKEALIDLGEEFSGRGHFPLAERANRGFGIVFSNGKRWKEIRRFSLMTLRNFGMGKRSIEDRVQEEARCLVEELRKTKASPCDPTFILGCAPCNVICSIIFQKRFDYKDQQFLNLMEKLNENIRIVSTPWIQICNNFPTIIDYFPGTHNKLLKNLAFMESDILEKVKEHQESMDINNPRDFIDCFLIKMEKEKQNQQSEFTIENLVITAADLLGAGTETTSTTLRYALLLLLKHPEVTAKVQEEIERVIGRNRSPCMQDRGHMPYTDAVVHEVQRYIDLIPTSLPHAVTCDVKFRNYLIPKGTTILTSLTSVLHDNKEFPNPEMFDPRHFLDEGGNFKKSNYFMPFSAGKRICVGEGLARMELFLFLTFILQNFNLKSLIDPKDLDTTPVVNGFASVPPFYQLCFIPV

Take `Clc1cnc2[nH]cc(Cc3cnc(NC4CCCCC4)nc3)c2c1` [Compound P-3001, [5-(5-chloro-1H-pyrrolo[2,3-b]pyridin-3-ylmethyl)-pyrimidin-2-yl]-cyclohexyl-amine]: the IC50 in assay [1], in assay [2], in assay [3] and in assay [4] was more than 10 µM each time.
As for `FC1(F)CCC(Nc2ncc(Cc3c[nH]c4ncc(Cl)cc34)cn2)CC1` [Compound P-3004], the IC50 in assay [1] was less than 10 µM; in assay [2], more than 10 µM; in assay [3], 5 to 10 µM; in assay [4] it was less than 10 µM.
`Clc1cnc2[nH]cc(Cc3cnc(NC4CCCCCC4)nc3)c2c1` [Compound P-3006, [5-(5-Chloro-1H-pyrrolo[2,3-b]pyridin-3-ylmethyl)-pyrimidin-2-yl]-cycloheptyl-amine]: the IC50 was more than 10 µM in assay [1], more than 10 µM in assay [2], more than 10 µM in assay [3] and less than 20 µM in assay [4].
For the compound `Cc1cnc2[nH]cc(Cc3cnc(Nc4ccc(C(F)(F)F)nc4)nc3)c2c1` [Compound P-3018, [5-(5-Methyl-1H-pyrrolo[2,3-b]pyridin-3-ylmethyl)-pyrimidin-2-yl]-(6-trifluoromethyl-pyridin-3-yl)-amine], the IC50 in assay [1] is less than 0.1 µM; in assay [2], more than 10 µM; in assay [3] it was more than 10 µM; in assay [4], less than 1 µM.
As for `COc1ccc(Nc2ccc(Cc3c[nH]c4ncc(C)cc34)c(F)n2)cn1` [Compound P-3019, [6-fluoro-5-(5-methyl-1H-pyrrolo[2,3-b]pyridin-3-ylmethyl)-pyridin-2-yl]-(6-methoxy-pyridin-3-yl)-amine], the IC50 in assay [1] was less than 0.1 µM; in assay [2], more than 10 µM; in assay [3], less than 5 µM; in assay [4], less than 0.1 µM.
`CCOc1ccc(Nc2ccc(Cc3c[nH]c4ncc(C)cc34)c(F)n2)cn1` [Compound P-3039, (6-ethoxy-pyridin-3-yl)-[6-fluoro-5-(5-methyl-1H-pyrrolo[2,3-b]pyridin-3-ylmethyl)-pyridin-2-yl]-amine]: the IC50 in assay [1] was less than 0.1 µM; in assay [2] it was more than 10 µM; in assay [3], more than 10 µM; in assay [4], less than 1 µM.
In the case of `COc1ccc(Nc2ccc(C(=O)c3c[nH]c4ncc(C)cc34)c(F)n2)cn1` [Compound P-3040, [2-Fluoro-6-(6-methoxy-pyridin-3-ylamino)-pyridin-3-yl]-(5-methyl-1H-pyrrolo[2,3-b]pyridin-3-yl)-methanone], the IC50 is less than 0.01 µM in assay [1], more than 10 µM in assay [2], more than 10 µM in assay [3] and less than 0.1 µM in assay [4].
On to `CCOc1ccc(Nc2ccc(C(=O)c3c[nH]c4ncc(C)cc34)c(F)n2)cn1` [Compound P-3045, [6-(6-ethoxy-pyridin-3-ylamino)-2-fluoro-pyridin-3-yl]-(5-methyl-1H-pyrrolo[2,3-b]pyridin-3-yl)-methanone], for which the IC50 in assay [1] and in assay [4] was less than 0.1 µM each time.
For the compound `CCc1ccc(Nc2ccc(Cc3c[nH]c4ncc(C)cc34)c(F)n2)cn1` [Compound P-3048, (6-Ethyl-pyridin-3-yl)-[6-fluoro-5-(5-methyl-1H-pyrrolo[2,3-b]pyridin-3-ylmethyl)-pyridin-2-yl]-amine], the IC50 was more than 10 µM in assay [2], less than 5 µM in assay [3] and less than 0.1 µM in assay [4].
For `CCc1ccc(Nc2ccc(C(=O)c3c[nH]c4ncc(C)cc34)c(F)n2)cn1` [Compound P-3049, [6-(6-Ethyl-pyridin-3-ylamino)-2-fluoro-pyridin-3-yl]-(5-methyl-1H-pyrrolo[2,3-b]pyridin-3-yl)-methanone], the values for the IC50 in assay [2], in assay [3] and in assay [4] were more than 10 µM, more than 10 µM and less than 0.01 µM, respectively.
Turning to `Cc1cnc2[nH]cc(Cc3ccc(Nc4ccc(C5CC5)nc4)nc3F)c2c1` [Compound P-3050, (6-Cyclopropyl-pyridin-3-yl)-[6-fluoro-5-(5-methyl-1H-pyrrolo[2,3-b]pyridin-3-ylmethyl)-pyridin-2-yl]-amine], the IC50 in assay [2] is more than 10 µM; in assay [3] it was more than 10 µM; in assay [4], less than 0.1 µM.
As for `Cc1cnc2[nH]cc(C(=O)c3ccc(Nc4ccc(C5CC5)nc4)nc3F)c2c1` [Compound P-3051, [6-(6-Cyclopropyl-pyridin-3-ylamino)-2-fluoro-pyridin-3-yl]-(5-methyl-1H-pyrrolo[2,3-b]pyridin-3-yl)-methanone], the values for the IC50 in assay [2], in assay [3] and in assay [4] were more than 10 µM, more than 10 µM and less than 0.1 µM, respectively.
Turning to `CCOc1ncnc2[nH]cc(Cc3ccc(Nc4ccc(Br)nc4)nc3F)c12` [Compound P-4020, (6-Bromo-pyridin-3-yl)-[5-(4-ethoxy-7H-pyrrolo[2,3-d]pyrimidin-5-ylmethyl)-6-fluoro-pyridin-2-yl]-amine], the IC50 in assay [1] was less than 0.1 µM; in assay [4], less than 1 µM.
The like results for `CCOc1ncnc2[nH]cc(Cc3ccc(Nc4cccnc4)nc3F)c12` [Compound P-4021, [5-(4-Ethoxy-7H-pyrrolo[2,3-d]pyrimidin-5-ylmethyl)-6-fluoro-pyridin-2-yl]-pyridin-3-yl-amine] were, in that order, less than 1 µM and more than 1 µM.
Take `CCOc1ccc(Nc2ccc(Cc3c[nH]c4ncnc(C5CC5)c34)c(F)n2)cn1` [Compound P-4026, [5-(4-Cyclopropyl-7H-pyrrolo[2,3-d]pyrimidin-5-ylmethyl)-6-fluoro-pyridin-2-yl]-(6-ethoxy-pyridin-3-yl)-amine]: the values for the IC50 in assay [1] and in assay [4] were less than 0.01 µM and less than 0.1 µM, respectively.
On to `CCOc1ccc(Nc2ccc(C(=O)c3c[nH]c4ncnc(C5CC5)c34)c(F)n2)cn1` [Compound P-4027, (4-Cyclopropyl-7H-pyrrolo[2,3-d]pyrimidin-5-yl)-[6-(6-ethoxy-pyridin-3-ylamino)-2-fluoro-pyridin-3-yl]-methanone], for which the IC50 in assay [1] is less than 0.01 µM; in assay [4], less than 0.1 µM.
For `CCOc1ccc(Nc2ccc(C(=O)c3c[nH]c4ncnc(C)c34)c(F)n2)cn1` [Compound P-4032, [6-(6-Ethoxy-pyridin-3-ylamino)-2-fluoro-pyridin-3-yl]-(4-methyl-7H-pyrrolo[2,3-d]pyrimidin-5-yl)-methanone], the IC50 in assay [1] and in assay [4] was less than 0.1 µM in each case.
As for `CCn1cc(Nc2ccc(C(=O)c3c[nH]c4ncnc(C5CC5)c34)c(F)n2)cn1` [Compound P-4037, (4-Cyclopropyl-7H-pyrrolo[2,3-d]pyrimidin-5-yl)-[6-(1-ethyl-1H-pyrazol-4-ylamino)-2-fluoro-pyridin-3-yl]-methanone], the IC50 is more than 10 µM in assay [2], more than 10 µM in assay [3] and less than 0.1 µM in assay [4].
Consider `Cc1cncc(Nc2ccc(Cc3c[nH]c4ncnc(C5CC5)c34)c(F)n2)c1` [Compound P-4038, [5-(4-Cyclopropyl-7H-pyrrolo[2,3-d]pyrimidin-5-ylmethyl)-6-fluoro-pyridin-2-yl]-(5-methyl-pyridin-3-yl)-amine], for which the IC50 in assay [1] is less than 0.1 µM; in assay [4], less than 1 µM.
On the same counts, the results for `Cc1cncc(Nc2ccc(C(=O)c3c[nH]c4ncnc(C5CC5)c34)c(F)n2)c1` [Compound P-4039, (4-Cyclopropyl-7H-pyrrolo[2,3-d]pyrimidin-5-yl)-[2-fluoro-6-(5-methyl-pyridin-3-ylamino)-pyridin-3-yl]-methanone] are less than 0.1 µM and less than 0.1 µM.
